How the values were obtained:
[1] = tested on: ABCA1 protein expression in Neuro2A cells; assay: ABCA1 immunoblot of Neuro2A cells treated with retinoic acid and oxysterols; type: cell-based, mouse; conditions: for ABCA1 induction, densitometric analysis / increase of ABCA1 protein (immunoblot) compared with 22-hydroxycholesterol: 5 μM oxysterol with 5 μM retinoic acid; for increase of ABCA1 protein (immunoblot) compared with 22-hydroxycholesterol: one or two days
Description: (§1) Cell culture. Mouse Neuro2A (neuroblastoma) cells and human IMR-32 (neuroblastoma) cells (American Type Culture Collection, Manassas, Va.) were cultured in Optimem (Gibco, Invitrogen Life Technologies, Carlsbad, Calif.) supplemented with 10% fetal bovine serum. Mouse BV-2 (microglial) and rat C6 (glioma) cells were cultured in Dulbecco's modified Eagle's medium supplemented with 5% fetal bovine serum. Mouse primary neuronal cultures were generated as described (27). Briefly, cortical neurons were isolated from embryonic day 16 Swiss-Webster mice. Individual cortices was dissociated in calcium-free saline and plated on poly-D-lysine (Sigma) coated tissue culture dishes at the density of 1.5×10^6 cell/ml. The neurons were grown in Neurobasal Media (Gibco BRL) plus 10% fetal bovine serum. One hour after plating, medium with serum was replaced with medium containing B-27 supplement (Gibco BRL). Western blot. Cells were lysed in 250 mM sucrose, 10 mM HEPES (pH 7.4), supplemented with complete protease inhibitors (Sigma Chemical Co). Protein levels were quantified by the BCA assay (Pierce, Rockford, Ill.), and samples of 50 μg were held in SDS loading buffer with 2.5% β-mercaptoethanol for 30 min at room temperature, but were not boiled prior to loading. Proteins were separated by SDS-6% polyacrylamide gel electrophoresis and transferred to nitrocellulose. Blots were probed with the anti-ABC1 antibodies (1:1000), and developed with anti-rabbit linked HRP secondary antibody by chemiluminescence.

LXRα or LXRβ isoforms = conditions: references 37, 38; cited from earlier work
[2] = tested on: ABCA1 protein expression in C6 cells; assay: ABCA1 immunoblot of C6 glioma cells; type: cell-based, rat
Description: as §1

[3] = tested on: ABCA1 protein expression in mouse primary neurons; assay: ABCA1 immunoblot of mouse primary neurons treated with retinoic acid and 22-hydroxycholesterol; type: cell-based
Description: as §1, with “Blots were probed with the anti-ABC1 antibodies (1:1000), and developed with anti-rabbit linked HRP secondary antibody by chemiluminescence.” left out

[4] = tested on: secreted Aβ42 from Neuro2A cells; assay: Aβ42 ELISA of conditioned medium of Neuro2A cells; type: cell-based, mouse; conditions: for increase of secreted Aβ42 over vehicle-treated cells: with retinoic acid, one day, 22-hydroxycholesterol 10 uM
Description: (§2) Cell culture. Mouse Neuro2A (neuroblastoma) cells and human IMR-32 (neuroblastoma) cells (American Type Culture Collection, Manassas, Va.) were cultured in Optimem (Gibco, Invitrogen Life Technologies, Carlsbad, Calif.) supplemented with 10% fetal bovine serum. Mouse BV-2 (microglial) and rat C6 (glioma) cells were cultured in Dulbecco's modified Eagle's medium supplemented with 5% fetal bovine serum. Mouse primary neuronal cultures were generated as described (27). Briefly, cortical neurons were isolated from embryonic day 16 Swiss-Webster mice. Individual cortices was dissociated in calcium-free saline and plated on poly-D-lysine (Sigma) coated tissue culture dishes at the density of 1.5×10^6 cell/ml. The neurons were grown in Neurobasal Media (Gibco BRL) plus 10% fetal bovine serum. One hour after plating, medium with serum was replaced with medium containing B-27 supplement (Gibco BRL).
(§3) RNA inhibition. Double stranded RNA (RNAi) was generated homologous to a region of the 5′ end of the coding portion of the mouse ABCA1 gene, 5′-AAGTGGCCTGGCCTCTCTTTA-3′ (SEQ ID NO:2) (Dharmacon Research Inc, Lafayette, Colo.). As a negative control, we used a sequence directed against the human hsp70 gene. Neuro2A cells were transfected with the RNAi with Effectene transfection reagent (Qiagen, Valencia, Calif.) according to manufacturer protocol. After an overnight exposure, RNAi complex was removed, cells were washed one time in growth medium, and the media was replaced with Neurobasal medium with 2% B-27 with or without LXR/RXR agonists for one day. Conditioned media was collected and analyzed for Aβ.
(§4) Aβanalyses. Cells were cultured in Neurobasal medium with 2% B-27 for one day in the presence or absence of LXR/RXR agonists. Aβ40 and Aβ42 levels in the conditioned medium were determined by ELISA, with BNT77 as a capture antibody and BA23-HRP for Aβ40 or BC05-HRP for Aβ42 as detection antibodies (28). Aβ antibodies for ELISA were the generous gift of Takeda Chemical Industries.

[5] = tested on: secreted Aβ40 from Neuro2A cells; assay: Aβ40 ELISA of conditioned medium of Neuro2A cells; type: cell-based, mouse; conditions: for increase of secreted Aβ40 over vehicle-treated cells: with retinoic acid, one day, 22-hydroxycholesterol 10 uM
Description: as §2, §3, §4

[6] = tested on: ABCA1 protein expression in BV-2 cells; assay: ABCA1 immunoblot of BV-2 microglial cells; type: cell-based, mouse
Description: as §1

[7] = tested on: ABCA1 protein expression in human neuroblastoma IMR-32 cells; assay: ABCA1 immunoblot of IMR-32 cells; type: cell-based; conditions: with retinoic acid
Description: as §1, with “Blots were probed with the anti-ABC1 antibodies (1:1000), and developed with anti-rabbit linked HRP secondary antibody by chemiluminescence.” left out

[8] = 5 μM retinoic acid and 5 μM 22-hydroxycholesterol together
[9] = cells treated only with buffer or with the RNAi named
[10] = retinoic acid and 22-hydroxycholesterol vs vehicle (ethanol), absence of RNAi
[11] = 1 μM TO-901317 in the presence of 5 μM retinoic acid

## C[C@H](CCCC(C)(C)O)[C@H]1CC[C@H]2[C@@H]3CC=C4C[C@@H](O)CC[C@]4(C)[C@H]3CC[C@]12C [25-hydroxycholesterol]
[1]
  ABCA1 induction, densitometric analysis: equivalent extent
  increase of ABCA1 protein (immunoblot) compared with 22-hydroxycholesterol: nearly as well as 22-hydroxycholesterol

## CC(C)[C@@H](O)CC[C@@H](C)[C@H]1CC[C@H]2[C@@H]3CC=C4C[C@@H](O)CC[C@]4(C)[C@H]3CC[C@]12C [24S-hydroxycholesterol]
LXRα or LXRβ isoforms
  ABCA1 expression through interactions with LXRα or LXRβ: induces ABCA1 expression

## CC(C)CC[C@@H](O)[C@@H](C)[C@H]1CC[C@H]2[C@@H]3CC=C4C[C@@H](O)CC[C@]4(C)[C@H]3CC[C@]12C [22-hydroxycholesterol, 22(R)-hydroxycholesterol]
[2]; [8]
  ABCA1 expression: increased
[3]; 22-hydroxycholesterol together with retinoic acid, from 100 nM to 10 uM
  ABCA1 expression with increasing concentration: further increased ABCA1 expression
[3]; one-day treatment, 100 nM 22-hydroxycholesterol together with 100 nM retinoic acid
  ABCA1 protein compared to untreated cells: up-regulation of ABCA1 protein
[4]; [9]
  secreted Aβ42 after 22-hydroxycholesterol/retinoic acid treatment, in words: significantly increased
[4]; [10]
  increase of Aβ42, control cells of the RNAi experiment: 62%
[4]
  increase of secreted Aβ42 over vehicle-treated cells: 65%
[5]; [9]
  secreted Aβ40 after 22-hydroxycholesterol/retinoic acid treatment, in words: significantly increased
[5]; [10]
  increase of Aβ40, control cells of the RNAi experiment: 29%
[5]
  increase of secreted Aβ40 over vehicle-treated cells: 29%
[1]
  ABCA1 induction, densitometric analysis: equivalent extent
[1]; 10 μM retinoic acid and 22-hydroxycholesterol together, untreated cells low or undetectable
  expression of ABCA1: clearly apparent
[1]; compound alone, some experiments
  up-regulation of ABCA1 in cells treated only with the one compound: weak up-regulation
[6]; [8]
  ABCA1 expression: increased
[7]
  ABCA1 levels: detectable ABCA1 levels only after induction

## CC(C)CCC[C@@H](C)[C@H]1CC[C@H]2[C@@H]3C(=O)C=C4C[C@@H](O)CC[C@]4(C)[C@H]3CC[C@]12C [7-ketocholesterol]
[1]
  ABCA1 induction, densitometric analysis: only half that level
  increase of ABCA1 protein (immunoblot) compared with 22-hydroxycholesterol: not as efficacious

## O=S(=O)(c1ccccc1)N(CC(F)(F)F)c1ccc(C(O)(C(F)(F)F)C(F)(F)F)cc1 [TO-901317]
[2]; 1 μM TO-901317 alone
  ABCA1 expression: increased
[2]; [11]
  ABCA1 expression: further increased
[4]
  increase of secreted Aβ42 over vehicle-treated cells: 126%
[5]
  increase of secreted Aβ40 over vehicle-treated cells: 25%
[6]; 1 μM TO-901317 alone
  ABCA1 expression: increased
[6]; [11]
  ABCA1 expression: further increased
